Consider 15 compounds from patent publication US20090012061A1, “A Method of Treating Cancer” (priority 2004, published 2009).

The target of assay [1] is T1, human KSP motor domain (KSP(367H)) (Homo sapiens, UniProt P52732).
T1 construct: were used to amplify the motor domain and the neck linker region; made in house; host or cells: E. coli BL21 (DE3), pRSETa
T1 sequence (P52732 18-359 limits assumed): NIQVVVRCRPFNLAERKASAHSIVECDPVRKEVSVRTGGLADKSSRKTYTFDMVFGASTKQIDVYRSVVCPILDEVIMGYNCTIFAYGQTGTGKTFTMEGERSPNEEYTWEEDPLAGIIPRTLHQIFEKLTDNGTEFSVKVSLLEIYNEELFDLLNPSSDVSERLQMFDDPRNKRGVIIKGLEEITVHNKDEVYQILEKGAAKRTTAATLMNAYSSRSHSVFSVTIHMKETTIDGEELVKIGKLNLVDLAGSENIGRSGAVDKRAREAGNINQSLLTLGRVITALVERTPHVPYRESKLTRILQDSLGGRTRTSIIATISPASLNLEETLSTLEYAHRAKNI
As to the kind of experiment: Kinesin ATPase in vitro assay (KSP ATPase, quinaldine red/ammonium molybdate phosphate detection). The class given is biochemical. To be noted: for pIC50: read-out: KSP ATPase IC50. The text has this:
Plasmids for the expression of the human KSP motor domain construct were cloned by PCR using a pBluescript full length human KSP construct (Blangy et al., Cell, vol. 83, pp 1159-1169, 1995) as a template. The N-terminal primer 5′-[…] (SEQ.ID.NO.: 1) and the C-terminal primer 5′-[…] […] (SEQ.ID.NO.: 2) were used to amplify the motor domain and the neck linker region. The PCR products were digested with AseI and XhoI, ligated into the NdeI/XhoI digestion product of pRSETa (Invitrogen) and transformed into E. coli BL21 (DE3).
Cells were grown at 37° C. to an OD600 of 0.5. After cooling the culture to room temperature expression of KSP was induced with 100 μM IPTG and incubation was continued overnight. Cells were pelleted by centrifugation and washed once with ice-cold PBS. Pellets were flash-frozen and stored −80° C.
Cell pellets were thawed on ice and resuspended in lysis buffer (50 mM K-HEPES, pH 8.0, 250 mM KCl, 0.1% Tween, 10 mM imidazole, 0.5 mM Mg-ATP, 1 mM PMSF, 2 mM benzimidine, 1× complete protease inhibitor cocktail (Roche)). Cell suspensions were incubated with 1 mg/ml lysozyme and 5 mM β-mercaptoethanol on ice for 10 minutes, followed by sonication (3×30 sec). All subsequent procedures were performed at 4° C. Lysates were centrifuged at 40,000×g for 40 minutes. Supernatants were diluted and loaded onto an SP Sepharose column (Phamacia, 5 ml cartridge) in buffer A (50 mM K-HEPES, pH 6.8, 1 mM MgCl2, 1 mM EGTA, 10 μM Mg-ATP, 1 mM DTT) and eluted with a 0 to 750 mM KCl gradient in buffer A. Fractions containing KSP were pooled and incubated with Ni-NTA resin (Qiagen) for one hour. The resin was washed three times with buffer B (Lysis buffer minus PMSF and protease inhibitor cocktail), followed by three 15-minute incubations and washes with buffer B. Finally, the resin was incubated and washed for 15 minutes three times with buffer C (same as buffer B except for pH 6.0) and poured into a column. KSP was eluted with elution buffer (identical to buffer B except for 150 mM KCl and 250 mM imidazole). KSP-containing fractions were pooled, made 10% in sucrose, and stored at −80° C.
Microtubules are prepared from tubulin isolated from bovine brain. Purified tubulin (>97% MAP-free) at 1 mg/ml is polymerized at 37° C. in the presence of 10 μM paclitaxel, 1 mM DTT, 1 mM GTP in BRB80 buffer (80 mM K-PIPES, 1 mM EGTA, 1 mM MgCl2 at pH 6.8). The resulting microtubules are separated from non-polymerized tubulin by ultracentrifugation and removal of the supernatant. The pellet, containing the microtubules, is gently resuspended in 10 μM paclitaxel, 1 mM DTT, 50 μg/ml ampicillin, and 5 μg/ml chloramphenicol in BRB80.
(§1) The kinesin motor domain (20 nM) is incubated with microtubules, ATP (1 mM 1:1 MgCl2: Na-ATP), and compound at 23° C. in buffer containing 80 mM K-HEPES (pH 7.0), 1 mM EGTA, 1 mM DTT, 1 mM MgCl2, and 50 mM KCl. The reaction is terminated by a 2-10 fold dilution with a final buffer composition of 80 mM HEPES and 50 mM EDTA (or, alternately, with a 1:1 addition of reaction volume to stop buffer(1.8M KCl and 50 mM EDTA)). Free phosphate from the ATP hydrolysis reaction is measured via a quinaldine red/ammonium molybdate assay by adding a 1.5 times volume of quench C (e.g., to a mixture of […] reaction volume+40 μl stop buffer is then added 120 μl quench C). Quench A contains 0.1 mg/ml quinaldine red and 0.14% polyvinyl alcohol; quench B contains 12.3 mM ammonium molybdate tetrahydrate in 1.15 M sulfuric acid. Quench C is a 2:1 ratio of quench A:quench B The reaction is incubated for 5-10 minutes at 23° C., and the absorbance of the phospho-molybdate complex is measured at 540 nm.
In order to identify compounds useful in the methods of the instant invention, the assay described above was then performed in the presence (0.5 μM) and absence of microtubules. Compounds that are commercially available are noted by the source and catalog number.

In assay [2] the target is T1, human KSP motor domain (KSP(367H)). Nature of the assay: Substrate competitive profile by Michaelis-Menton analysis with the KSP ATPase assay. The class given is biochemical. To be noted: for Competitive with ATP?: ATP varied between 4 μM and 500 μM, in the presence of 2 μM of microtubules; for Competitive with MT?: microtubules varied between 0.01 μM and 5 μM, in the presence of 1 mM of ATP. Here is the method: as §1
The in vitro substrate competitive profiles of the compounds described in Table 1 below were determined using a Michaelis-Menton analysis with the assay described above, but varying assay concentrations of one of the substrates (ATP or microtubule) in the presence of excess of the second substrate. Thus, the concentration of ATP was varied between 4 μM and 500 μM, in the presence of 2 μM of microtubules. And the concentration of microtubules was varied between 0.01 μM and 5 μM, in the presence of 1 mM of ATP.

[3] abbreviates: Table 1, kinesin motor domain 20 nM, with microtubules, 1 mM ATP, 23° C.
The mark [4] stands for this setting: Table 2, microtubules absent (basal), [MT] = 0 uM, standard KSP(ADP), read-out: KSP ATPase IC50 (nM) [MT] = 0 uM.
[5] abbreviates: Table 2, microtubules present, [MT] = 0.5 uM, standard KSP(ADP), read-out: KSP ATPase IC50 (nM) [MT] = 0.5 uM.

Each structure is given as a SMILES string. pIC50: −log10 of the molar value. Several values for one entry are separate records, joined by “and”; a condition that tells them apart may be missing. Equal entries are not always repeated. Where two headings read alike, the source gives them in different places. A value given as a limit tells only on which side of the number the result lay.

The term pIC50 denotes −log10 of the IC50, conventionally taken in molar units. What is called IC50 is the concentration at which inhibition is half-maximal. For `C=CCNC(=O)c1cc(-c2ccc(Cl)cc2)n(-c2cc(Cl)ccc2Cl)n1` [Compound 8], the pIC50 in assay [1] (setting [3]) is 5.30. In addition, the 50% inhibitory concentration (IC50) in assay [1] (setting [4]) was over 50000 nM. Further, the IC50 in assay [1] (setting [5]) is 3100 nM and 5540 nM. Also, in assay [2], the “Competitive with ATP?” value is on record as “no” and the “Competitive with MT?” value was “no”.
For the compound `Cc1cc2ncn(CC(O)COc3ccc(I)cc3)c2cc1C` (centres unmarked) [Compound 10], the pIC50 in assay [1] (setting [3]) was 5.32. The IC50 in assay [1] (setting [4]) is over 50000 nM. Further, in assay [1] (setting [5]), the IC50 came out at 5040 nM. For the same compound, in assay [2], the “Competitive with ATP?” value was “no” and the “Competitive with MT?” value is “no”.
For `CCCc1cc(N)c2cc(NC(=O)c3ccc(Oc4ccc(Cl)cc4)cc3)ccc2n1` [Compound 4], the pIC50 in assay [1] (setting [3]) is 5.49. The IC50 in assay [1] (setting [4]) is over 50000 nM. The IC50 in assay [1] (setting [5]) is 2550 nM and 3430 nM. Also, in assay [2], the “Competitive with ATP?” value was “no” and the “Competitive with MT?” value is “no”.
For `O=C(NC(C(=O)c1ccccc1)c1ccccc1)OCc1ccccc1` (centres unmarked) [Compound 3, N-(2-Oxo-1,2-diphenyl-ethyl)-carbamic acid benzyl ester], the pIC50 in assay [1] (setting [3]) is 5.63. Moreover, the IC50 in assay [1] (setting [4]) is over 50000 nM. The IC50 in assay [1] (setting [5]) was 4050 nM and 2940 nM. For the same compound, in assay [2], the “Competitive with ATP?” value was “no” and the “Competitive with MT?” value is recorded as “no”.
Regarding `CC(C)(C)c1cccc(NC(=O)Nc2ccc3ccc(O)cc3c2)c1` [Compound 6, N-(3-tert-butylphenyl)-N-(7-hydroxy-2-naphthyl)urea], the negative-log IC50 (pIC50) in assay [1] (setting [3]) was 5.72. The IC50 in assay [1] (setting [4]) was over 50000 nM; in assay [1] (setting [5]) it was 2780 nM. Moreover, the “Competitive with ATP?” value in assay [2] is reported as “no”. For the same compound, the “Competitive with MT?” value in assay [2] is “no”.
Regarding `Cc1nn(C(=S)NCc2ccccc2)c2c1[C@H]1[C@@H](C2)C1(C)C` [Compound 11], the pIC50 in assay [1] (setting [3]) is 5.91. Besides, the IC50 in assay [1] (setting [4]) is over 50000 nM; in assay [1] (setting [5]), 1820 nM and 1360 nM. Besides, in assay [2], the “Competitive with ATP?” value is listed as “no”. For the same compound, the “Competitive with MT?” value in assay [2] is on record as “no”.
`CCOC(=O)CSc1nc(C23CC4CC(CC(C4)C2)C3)ccc1C#N` [Compound 12]: in assay [1] (setting [3]), the pIC50 was 6.25. Further, the IC50 in assay [1] (setting [4]) was over 50000 nM; in assay [1] (setting [5]), 1150 nM. Moreover, in assay [2], the “Competitive with ATP?” value is “no”.
On to `O=C(c1cc([N+](=O)[O-])ccc1Cl)N1c2ccccc2Sc2ccccc21` [Compound 13], for which the pIC50 in assay [1] (setting [3]) was 6.06. Moreover, the IC50 in assay [1] (setting [4]) was over 50000 nM. Besides, in assay [1] (setting [5]), the IC50 was 2530 nM and 4520 nM. For the same compound, in assay [2], the “Competitive with ATP?” value was “no” and the “Competitive with MT?” value was “no”.
With `CSc1ccc(C(=O)N2CCCN(CC(=O)Nc3ccc(F)cc3)CC2)s1` [Compound 15], the pIC50 in assay [1] (setting [3]) is 5.15 and 5.17. Besides, the IC50 was over 50000 nM in assay [1] (setting [4]) and 8880 nM in assay [1] (setting [5]). Also, in assay [2], the “Competitive with ATP?” value is “no”. The “Competitive with MT?” value in assay [2] is on record as “no”.
Turning to `CC(C)(C)c1ccc2[nH]c3c(c2c1)CCCC3=O` [Compound 1], the pIC50 in assay [1] (setting [3]) was 6.22. Also, the IC50 was over 50000 nM in assay [1] (setting [4]); 619 nM and 685 nM in assay [1] (setting [5]). In addition, the “Competitive with ATP?” value in assay [2] is recorded as “no”. The “Competitive with MT?” value in assay [2] is “no”.
On to `O=C(Nc1nc2ccccc2s1)C(c1ccccc1)c1ccccc1` [Compound 2], for which, in assay [1] (setting [3]), the pIC50 was 5.96. Moreover, the IC50 in assay [1] (setting [4]) was over 50000 nM. Moreover, in assay [1] (setting [5]), the IC50 is 1400 nM and 2150 nM. For the same compound, in assay [2], the “Competitive with ATP?” value is on record as “no” and the “Competitive with MT?” value was “no”.
Turning to `CCN1C(=O)C(O)(c2ccccc2)c2cc(Br)ccc21` (centres unmarked) [Compound 14], the IC50 in assay [1] (KSP ATPase IC50 (nM) [MT] = 0 uM, Table 2, microtubules absent (basal), [MT] = 0 uM, standard KSP(ADP)) was over 50000 nM; in assay [1] (KSP ATPase IC50 (nM) [MT] = 0.5 uM, Table 2, microtubules present, [MT] = 0.5 uM, standard KSP(ADP)), 8920 nM and 4600 nM; in assay [1] (KSP ATPase IC50 (nM), Table 1, kinesin motor domain 20 nM, with microtubules, 1 mM ATP, 23° C.), 3920 nM. Further, in assay [2], the “Competitive with ATP?” value is reported as “no”. Also, the “Competitive with MT?” value in assay [2] is listed as “no”.
Regarding `Cc1ccc(NC(=O)C(c2ccccc2)c2ccccc2)cc1[N+](=O)[O-]` [Compound 7], the pIC50 in assay [1] (setting [3]) is 5.41. The IC50 in assay [1] (setting [4]) is over 50000 nM. In addition, the IC50 in assay [1] (setting [5]) is 3690 nM and 6290 nM. Further, in assay [2], the “Competitive with ATP?” value is listed as “no” and the “Competitive with MT?” value is recorded as “no”.
Consider `O=C(Nc1ccc(Br)c(Cl)c1)C(c1ccccc1)c1ccccc1` [Compound 9], for which the pIC50 in assay [1] (setting [3]) is 6.16. Moreover, in assay [1] (setting [4]), the IC50 is over 50000 nM. The IC50 in assay [1] (setting [5]) was 647 nM. In addition, in assay [2], the “Competitive with ATP?” value was “no” and the “Competitive with MT?” value is given as “no”.
Turning to `Oc1cccc(CC2(Cc3cccc(O)c3)Cc3ccccc3C2)c1` [Compound 5], the pIC50 in assay [1] (setting [3]) is 5.23. Also, the IC50 was over 50000 nM in assay [1] (setting [4]) and 7740 nM in assay [1] (setting [5]). For the same compound, the “Competitive with ATP?” value in assay [2] is “no”. The “Competitive with MT?” value in assay [2] was “no”.
